Laboratory results as given in patent publication US4091202A (Zaidan Hojin Biseibutsu Kagaku Kenkyu Kai, priority 1975, dated 1978).
In brackets after ≈: the same amount, converted by molar mass. Structures can show the parent of a compound that is named as a salt. Where two headings read alike, the source gives them in different places.

Assays:
[1] = test system: Escherichia coli K-12 R81; assay: Minimum inhibitory concentration, serial dilution on nutrient agar; format: cell-based; conditions: for MIC: Escherichia coli, K12R81, 41 h; for M.I.C.: Escherichia coli K-12 R81, nutrient agar, 37° C, 41 hours
Description: (§1) Minimum inhibitory concentrations (mcg/ml) of the new compounds of the invention to various bacteria are estimated according to a standard serial dilution method using nutrient agar as the incubation medium, the incubation being made at 37° C for 41 hours.

Proteus vulgaris OX19 = assay: as above; format: cell-based; conditions: 37° C, 41 hours
Description: as §1

[2] = test system: Escherichia coli K-12 W677; assay: as above; format: cell-based; conditions: 41 hours; for MIC: K12W677, 37° C; for M.I.C.: 37° C
Description: as §1

[3] = test system: Pseudomonas aeruginosa GN315; assay: as above; format: cell-based
Description: as §1

[4] = test system: Escherichia coli K-12 ML-1629; assay: as above; format: cell-based; conditions: 41 hours; for MIC: K12ML1629, 37° C; for M.I.C.: 37° C
Description: as §1

[5] = test system: Escherichia coli K-12 ML-1410; assay: as above; format: cell-based; conditions: 41 hours; for MIC: K12ML1410, 37° C; for M.I.C.: 37° C
Description: as §1

[6] = test system: Pseudomonas aeruginosa No.12; assay: as above; format: cell-based; conditions: 37° C, 41 hours
Description: as §1

[7] = test system: Escherichia coli K-12 MA290 R55; assay: as above; format: cell-based; conditions: for MIC: Escherichia coli, K12MA290R55, 41 h; for M.I.C.: Escherichia coli K-12 MA290 R55, nutrient agar, 37° C, 41 hours
Description: as §1

[8] = test system: Klebsiella pneumoniae PCI602; assay: as above; format: cell-based; conditions: 37° C, 41 hours
Description: as §1

[9] = test system: Pseudomonas aeruginosa A3; assay: as above; format: cell-based; conditions: 37° C, 41 hours
Description: as §1

Bacillus subtilis PCI219 = assay: as above; format: cell-based
Description: as §1

Shigella sonnei JS11746 = assay: as above; format: cell-based; conditions: 37° C, 41 hours
Description: as §1

[10] = test system: Staphylococcus aureus FDA 209P; assay: as above; format: cell-based; conditions: for MIC: FDA209P
Description: as §1

Mycobacterium 607 = assay: as above; format: cell-based; conditions: 37° C, 41 hours
Description: as §1

Escherichia coli K-12 = assay: as above; format: cell-based
Description: as §1

[11] = test system: Escherichia coli K-12 JR66/W677; assay: as above; format: cell-based; conditions: for MIC: Escherichia coli, K12JR66/W677, 41 h; for M.I.C.: Escherichia coli K-12 JR66/W677, nutrient agar, 37° C, 41 hours
Description: as §1

in vivo = conditions: mouse, iv
mice = conditions: for LD50 value: intravenous, mice, six per group, 20% w/v in isotonic sodium chloride solution
[12] = test system: Staphylococcus aureus Smith S-424; assay: Therapeutic treatment of bacterial infection in mice (ED50); format: in vivo; conditions: mice infected i.p. with S. aureus Smith S-424, 27.8 × 10^4 cells, single intramuscular injection immediately after inoculation; for ED50: Staphylococcus aureus, SMITHS424, im
Description: Said inoculum is corresponding to a 860-fold quantity of the LD50 dosage of S.aureus Smith S-424. A solution of the test compound in sterile, isotonic sodium chloride solution was intramuscularly injected into the infected mice once immediately after the inoculation of the bacterium at dosages of 0.1 mg, 0.05 mg, 0.025 mg, 0.0125 mg and 0.0063 mg of the test compound per mouse.

Bacillus subtilis = assay: Antibacterial potency by cup-assay method; format: cell-based; conditions: for antibacterial potency: assuming DKB (free base) has 1000 units/mg
[13] = test system: some kanamycin-resistant bacteria and Pseudomonas aeruginosa; conditions: British Patent No. 1,349,302; cited from earlier work
[14] = Pseudomonas aeruginosa GN315, nutrient agar, 37° C, 41 hours, read-out: M.I.C.
[15] = Bacillus subtilis PCI219, nutrient agar, 37° C, 41 hours, read-out: M.I.C.
[16] = Staphylococcus aureus FDA 209P, nutrient agar, 37° C, 41 hours, read-out: M.I.C.
[17] = Pseudomonas aeruginosa GN315, nutrient agar, 37° C, 41 hours
[18] = Bacillus subtilis PCI219, nutrient agar, 37° C, 41 hours
[19] = Staphylococcus aureus FDA 209P, nutrient agar, 37° C, 41 hours
[20] = Escherichia coli K-12, nutrient agar, 37° C, 41 hours

Compound | MIC (Proteus vulgaris OX19) [µg/mL] | MIC [4] [µg/mL] | MIC [6] [µg/mL] | LD50 value (mice) [mg/kg] | M.I.C. [1] [µg/mL] | M.I.C. (Proteus vulgaris OX19) [µg/mL] | M.I.C. [2] [µg/mL] | M.I.C. [3, 17] [µg/mL] | M.I.C. [4] [µg/mL] | M.I.C. [5] [µg/mL] | M.I.C. [6] [µg/mL] | M.I.C. [7] [µg/mL] | M.I.C. [8] [µg/mL] | M.I.C. [9] [µg/mL] | M.I.C. (Bacillus subtilis PCI219; [18]) [µg/mL] | M.I.C. (Shigella sonnei JS11746) [µg/mL] | M.I.C. [10, 19] [µg/mL] | M.I.C. (Mycobacterium 607) [µg/mL] | M.I.C. (Escherichia coli K-12; [20]) [µg/mL] | M.I.C. [11] [µg/mL] | other results
O=S(=O)(O)C(NC[C@@H]1CC[C@@H](NC(c2ccccc2)S(=O)(=O)O)[C@@H](O[C@H]2[C@H](O)[C@@H](O[C@H]3O[C@H](CO)[C@@H](O)[C@H](NC(c4ccccc4)S(=O)(=O)O)[C@H]3O)[C@H](NC(c3ccccc3)S(=O)(=O)O)C[C@@H]2NC(c2ccccc2)S(=O)(=O)O)O1)c1ccccc1 (stereo partly drawn) [3',4'-Dideoxykanamycin B-penta-N-phenylmethanesulfonic acid sodium salt] | 0.39 | 0.39 | 3.12 | – | – | – | – | – | – | – | – | – | – | – | – | – | – | – | – | – | MIC [1]: 0.78 µg/mL; MIC [2]: 0.78 µg/mL; MIC [3, 14]: > 100 µg/mL; MIC [5]: 0.78 µg/mL; MIC [7]: 100 µg/mL; MIC [8]: 0.39 µg/mL; MIC [9]: 0.78 µg/mL; MIC (Bacillus subtilis PCI219; [15]): 0.2 µg/mL; MIC (Shigella sonnei JS11746): 1.56 µg/mL; MIC [10, 16]: < 0.2 µg/mL; MIC (Mycobacterium 607): 0.78 µg/mL; MIC (Escherichia coli K-12; K12, Escherichia coli K-12, nutrient agar, 37° C, 41 hours, read-out: M.I.C.): 0.78 µg/mL; MIC [11]: 100 µg/mL; LD50 (in vivo): > 5000 mg/kg
3',4'-Dideoxykanamycin B-di-N-methylmethane-sulfonic acid and its sodium salt | – | – | – | > 2000 | 0.78 | < 0.2 | 0.78 | > 100 | 0.78 | 0.78 | 1.56 | 50 | 0.39 | 0.78 | < 0.2 | 0.78 | < 0.2 | 0.39 | 0.78 | 50 | –
3',4'-Dideoxykanamycin B-mono-N-methanesulfonic acid and its sodium salt [DKB-mono-N-methanesulfonic acid Na salt] | – | – | – | > 1500 | 0.78 | < 0.2 | 0.78 | > 100 | 0.78 | 0.78 | 1.56 | 50 | 0.39 | 0.78 | < 0.2 | 0.78 | < 0.2 | 0.39 | 0.78 | 50 | –
O=S(=O)(O)CNC[C@@H]1CC[C@@H](NCS(=O)(=O)O)[C@@H](O[C@H]2[C@H](O)[C@@H](O[C@H]3O[C@H](CO)[C@@H](O)[C@H](NCS(=O)(=O)O)[C@H]3O)[C@H](NCS(=O)(=O)O)C[C@@H]2NCS(=O)(=O)O)O1 [DKB-penta-N-methanesulfonic acid Na salt, 3',4'-dideoxykanamycin B-penta-N-methanesulfonic acid sodium salt] | 0.39 | 0.39 | 3.12 | – | – | – | – | – | – | – | – | – | – | – | – | – | – | – | – | – | ED50 [12]: 1.9 mg/kg; MIC [3, 14]: > 100 µg/mL; MIC [7]: 100 µg/mL; MIC [8]: 0.39 µg/mL; MIC (Bacillus subtilis PCI219; Bacillus subtilis, PCI219, 41 h): 0.2 µg/mL; MIC (Shigella sonnei JS11746): 1.56 µg/mL; MIC ([10]; Staphylococcus aureus, 41 h): < 0.2 µg/mL; MIC [11]: 100 µg/mL; antibacterial potency (Bacillus subtilis): 400 units/mg; LD50 (in vivo): > 5000 mg/kg
3',4'-Dideoxykanamycin B-tri-N-methanesulfonic acid sodium salt [DKB-tri-N-methanesulfonic acid Na salt] | – | – | – | > 5000 | 0.78 | 0.39 | 0.78 | > 100 | 0.78 | 0.78 | 3.12 | 100 | 0.39 | 0.78 | 0.2 | 1.56 | < 0.2 | 0.78 | 0.78 | 100 | –
3',4'-Dideoxykanamycin B-di-N-methanesulfonic acid sodium salt [DKB-di-N-methanesulfonic acid Na salt] | – | – | – | 4250 | 0.78 | < 0.2 | 0.78 | > 100 | 0.78 | 0.78 | 1.56 | 50 | 0.39 | 0.78 | < 0.2 | 0.78 | < 0.2 | 0.39 | 0.78 | 50 | acute toxicity relative to that of 3',4'-dideoxykanamycin B itself (mice; intravenous injection into mice, from Table 2): about 1/40; ED50 value [12]: 1.15 mg/kg; antibacterial potency (Bacillus subtilis): 590 units/mg
NC[C@@H]1CC[C@@H](N)[C@@H](O[C@H]2[C@H](O)[C@@H](O[C@H]3O[C@H](CO)[C@@H](O)[C@H](N)[C@H]3O)[C@H](N)C[C@@H]2N)O1 [DKB, 3',4'-dideoxykanamycin B, reference compound] | < 0.2 | 0.78 (≈ 1.73 µM) | 1.56 (≈ 3.45 µM) | – | – | – | – | – | – | – | – | – | – | – | – | – | – | – | – | – | antibacterial activity [13]: high antibacterial activity against some kanamycin-resistant bacteria and Pseudomonas aeruginosa; ED50 [12]: 1.15 mg/kg; MIC [1]: 0.78 µg/mL (≈ 1.73 µM); MIC [2]: 0.78 µg/mL (≈ 1.73 µM); MIC ([3]; Pseudomonas aeruginosa, GN315, 41 h): > 100 µg/mL; MIC [5]: 0.78 µg/mL (≈ 1.73 µM); MIC [7]: 50 µg/mL (≈ 111 µM); MIC [8]: 0.39 µg/mL (≈ 0.864 µM); MIC [9]: 0.78 µg/mL (≈ 1.73 µM); MIC (Bacillus subtilis PCI219; [15]): < 0.2 µg/mL; MIC (Shigella sonnei JS11746): 0.78 µg/mL (≈ 1.73 µM); MIC [10, 16]: < 0.2 µg/mL; MIC (Mycobacterium 607): 0.39 µg/mL (≈ 0.864 µM); MIC (Escherichia coli K-12; Escherichia coli, K12, 41 h): 0.78 µg/mL (≈ 1.73 µM); MIC [11]: 50 µg/mL (≈ 111 µM); antibacterial potency (assumed reference value) (Bacillus subtilis; assumed value of the standard): 1000 units/mg
